Measurements taken from the CheMixHub viscosity set.

Experiment: xn = mol fraction of the nth substance listed

O=C(O)C(Cl)(Cl)Cl + CC(C)=O
viscosity [mPa·s], 101 kPa
Conditions | 298.15 K | 308.15 K | 318.15 K
x1 = 0.0484 | 0.368 | – | –
x1 = 0.1316 | 0.4855 | – | –
x1 = 0.165 | – | 0.5039 | 0.453
x1 = 0.2517 | – | 0.6893 | 0.6078
x1 = 0.2543 | 0.8156 | – | –
x1 = 0.3485 | – | 1.01 | 0.8833
x1 = 0.3826 | 1.433 | – | –
x1 = 0.4411 | – | 1.508 | 1.273
x1 = 0.5048 | 2.571 | – | –
x1 = 0.5537 | – | 2.424 | 1.967
x1 = 0.5971 | 3.829 | – | –
x1 = 0.6808 | – | 3.725 | 2.922
x1 = 0.7175 | 5.808 | – | –
x1 = 0.7475 | – | 4.527 | 3.504
x1 = 0.8521 | – | 5.855 | 4.441
x1 = 0.9183 | – | – | 5.024

CCCCN + CC(C)CO
298.15 K, 101.32 kPa
Conditions | viscosity [mPa·s]
x2 = 0.1005 | 0.5513
x2 = 0.2 | 0.6546
x2 = 0.2984 | 0.7783
x2 = 0.3994 | 0.9361
x2 = 0.4997 | 1.135
x2 = 0.5998 | 1.373
x2 = 0.7007 | 1.674
x2 = 0.8122 | 2.126
x2 = 0.8939 | 2.593

CC[N+](=O)[O-] + CC(C)O
viscosity [mPa·s], 101.33 kPa
Conditions | 293.15 K | 303.15 K | 313.15 K
x2 = 0.0501 | 0.68 | 0.605 | 0.536
x2 = 0.1 | 0.672 | 0.595 | 0.53
x2 = 0.15 | 0.671 | 0.592 | 0.526
x2 = 0.2 | 0.678 | 0.594 | 0.526
x2 = 0.25 | 0.698 | 0.601 | 0.53
x2 = 0.3 | 0.707 | 0.613 | 0.538
x2 = 0.35 | 0.729 | 0.628 | 0.546
x2 = 0.4 | 0.766 | 0.647 | 0.559
x2 = 0.4501 | 0.8 | 0.67 | 0.576
x2 = 0.5 | 0.827 | 0.697 | 0.597
x2 = 0.5499 | 0.881 | 0.731 | 0.62
x2 = 0.6001 | 0.932 | 0.777 | 0.648
x2 = 0.65 | 1 | 0.819 | 0.683
x2 = 0.7 | 1.08 | 0.877 | 0.725
x2 = 0.7499 | 1.18 | 0.949 | 0.774
x2 = 0.8 | 1.276 | 1.052 | 0.849
x2 = 0.8499 | 1.467 | 1.154 | 0.915
x2 = 0.9 | 1.681 | 1.305 | 1.021
x2 = 0.95 | 1.983 | 1.507 | 1.16

Cc1ccncc1 + CC(C)O
298.15 K, 101.33 kPa
Conditions | viscosity [mPa·s]
x2 = 0.0886 | 0.8731
x2 = 0.1711 | 0.8916
x2 = 0.2569 | 0.9174
x2 = 0.4424 | 0.9998
x2 = 0.5207 | 1.048
x2 = 0.6685 | 1.181
x2 = 0.8095 | 1.405
x2 = 0.8831 | 1.599

CCCCN + CCC(=O)O
viscosity [mPa·s], 101 kPa
Conditions | x2 = 0.2 | x2 = 0.3 | x2 = 0.4 | x2 = 0.5 | x2 = 0.6 | x2 = 0.7 | x2 = 0.75 | x2 = 0.8 | x2 = 0.875
293.15 K | 1.82 | 15.13 | 63.74 | 0.5662 | 178 | 54.56 | 30.14 | 18.72 | 5.08
298.15 K | 1.75 | 12.72 | 51.68 | 0.4002 | 137.5 | 43.2 | 25.03 | 15.68 | 4.48
303.15 K | 1.63 | 10.92 | 41.89 | – | 107.7 | 35.21 | 20.17 | 13 | 4.05
308.15 K | 1.56 | 9.48 | 34.98 | – | 85.1 | 29.21 | 17.49 | 11.15 | 3.57
313.15 K | 1.44 | 8.34 | 29.06 | 176.5 | 71.2 | 24.51 | 15.02 | – | 3.09
313.5 K | – | – | – | – | – | – | – | 9.51 | –
318.15 K | 1.41 | 7.31 | 24.58 | 136.6 | 57.9 | 20.64 | 12.59 | 8.34 | 2.86
323.15 K | – | 6.66 | 21.02 | 112.7 | 47.7 | 17.83 | 11.15 | 7.33 | 2.73

CCCCN + CCC(C)=O
303.15 K, 101.33 kPa
Conditions | viscosity [mPa·s]
x1 = 0.0943 | 0.482
x1 = 0.181 | 0.593
x1 = 0.2823 | 0.732
x1 = 0.4616 | 0.924
x1 = 0.5768 | 0.967
x1 = 0.674 | 0.914
x1 = 0.7814 | 0.819
x1 = 0.891 | 0.671

CC[N+](=O)[O-] + CCC(C)O
viscosity [mPa·s], 101.33 kPa
Conditions | 293.15 K | 303.15 K | 313.15 K
x2 = 0.05 | 0.679 | 0.605 | 0.543
x2 = 0.1 | 0.68 | 0.601 | 0.538
x2 = 0.15 | 0.684 | 0.604 | 0.536
x2 = 0.2001 | 0.704 | 0.616 | 0.542
x2 = 0.25 | 0.727 | 0.632 | 0.555
x2 = 0.3002 | 0.759 | 0.652 | 0.569
x2 = 0.35 | 0.793 | 0.676 | 0.586
x2 = 0.4 | 0.845 | 0.716 | 0.61
x2 = 0.45 | 0.904 | 0.75 | 0.64
x2 = 0.5 | 0.971 | 0.8 | 0.675
x2 = 0.55 | 1.034 | 0.847 | 0.707
x2 = 0.5999 | 1.123 | 0.909 | 0.75
x2 = 0.6499 | 1.236 | 0.98 | 0.801
x2 = 0.7 | 1.378 | 1.07 | 0.862
x2 = 0.7497 | 1.516 | 1.169 | 0.935
x2 = 0.8 | 1.723 | 1.319 | 1.026
x2 = 0.8499 | 1.983 | 1.484 | 1.144
x2 = 0.8998 | 2.353 | 1.724 | 1.304
x2 = 0.9499 | 2.873 | 2.05 | 1.511

Cc1ccncc1 + CCC(C)O
298.15 K, 101.33 kPa
Conditions | viscosity [mPa·s]
x2 = 0.0808 | 0.8992
x2 = 0.1812 | 0.9547
x2 = 0.2378 | 0.9923
x2 = 0.3187 | 1.047
x2 = 0.3221 | 1.052
x2 = 0.3999 | 1.131
x2 = 0.4574 | 1.186
x2 = 0.5582 | 1.328
x2 = 0.6284 | 1.445
x2 = 0.7034 | 1.608
x2 = 0.8528 | 2.092
x2 = 0.9272 | 2.446
